{"source": "PubChem BioAssay AID248", "about": "(DTP/NCI, 2004)", "tested_on": "L1210 leukemia ip in BDF1 mice, survival T/C", "experiment": "NCI In Vivo Anticancer Drug Screen. Data for tumor model L1210 Leukemia (intraperitoneal) in B6D2F1 (BDF1) mice", "details": "endpoint: mean survival time, higher = longer survival", "outline": "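Transplantable tumor model; survival measured in treated vs vehicle control mice. Value = treated/control.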", "key": {"[1]": {"details": "dose: 100.0 mg/kg/injection, schedule: Q01DX009 (ip), vehicle: saline"}, "[2]": {"details": "dose: 100.0 mg/kg/injection, schedule: Q01DX001 (ip), vehicle: saline"}, "[3]": {"details": "dose: 200.0 mg/kg/injection, schedule: Q01DX001 (ip), vehicle: saline"}, "[4]": {"details": "dose: 400.0 mg/kg/injection, schedule: Q01DX001 (ip), vehicle: saline"}}, "note": "“And” between values parts separate entries of the source, which are not always exact repeats. Equal values may be shown once. Inconclusive results and toxic doses are left out.", "data": [{"smiles": "CC(O)c1ccc(Cl)c(Cl)c1", "note": "(stereo not given)", "values": [{"measurement": "T/C", "setting": "dose: 100.0 mg/kg/injection, schedule: Q01DX009 (ip), vehicle: Klucel (hydroxypropylcellulose) (HPC)", "value": "91 % of control"}, {"measurement": "T/C", "setting": "dose: 100.0 mg/kg/injection, schedule: Q04DX003 (ip), vehicle: Klucel (hydroxypropylcellulose) (HPC)", "value": "98 % of control"}, {"measurement": "T/C", "setting": "dose: 200.0 mg/kg/injection, schedule: Q01DX009 (ip), vehicle: Klucel (hydroxypropylcellulose) (HPC)", "value": "90 % of control"}, {"measurement": "T/C", "setting": "dose: 200.0 mg/kg/injection, schedule: Q04DX003 (ip), vehicle: Klucel (hydroxypropylcellulose) (HPC)", "value": "109 % of control"}, {"measurement": "T/C", "setting": "dose: 400.0 mg/kg/injection, schedule: Q01DX009 (ip), vehicle: Klucel (hydroxypropylcellulose) (HPC)", "value": "101 % of control"}, {"measurement": "T/C", "setting": "dose: 400.0 mg/kg/injection, schedule: Q04DX003 (ip), vehicle: Klucel (hydroxypropylcellulose) (HPC)", "value": "104 % of control"}]}, {"smiles": "COc1cc(C(=O)Nc2ccc(C3=NCCN3)cc2)ccc1C(=O)Nc1ccc(C2=NCCN2)cc1", "values": [{"measurement": "T/C", "setting": "dose: 15.0 mg/kg/injection, schedule: Q01DX Z (ip), vehicle: saline", "value": "159 % of control and 172 % of control"}, {"measurement": "T/C", "setting": "dose: 30.0 mg/kg/injection, schedule: Q01DX Z (ip), vehicle: saline", "value": "212 % of control"}, {"measurement": "T/C", "setting": "dose: 60.0 mg/kg/injection, schedule: Q01DX010 (oral), vehicle: saline", "value": "101 % of control"}, {"measurement": "T/C", "setting": "dose: 60.0 mg/kg/injection, schedule: Q01DX Z (ip), vehicle: saline", "value": "188 % of control"}, {"measurement": "T/C", "setting": "dose: 120.0 mg/kg/injection, schedule: Q01DX010 (oral), vehicle: saline", "value": "104 % of control"}, {"measurement": "T/C", "setting": "dose: 240.0 mg/kg/injection, schedule: Q01DX010 (oral), vehicle: saline", "value": "98 % of control"}]}, {"smiles": "COC(=O)CC(=O)C(Cl)C(=O)OC", "note": "(stereo not given)", "values": [{"measurement": "T/C", "setting": "dose: 50.0 mg/kg/injection, schedule: Q01DX009 (ip), vehicle: saline", "value": "97 % of control"}, {"measurement": "T/C", "setting": "[1]", "value": "108 % of control"}]}, {"smiles": "O=C(O)CCNC(=S)Nc1ccc(S(=O)(=O)c2ccc(NC(=S)NCCC(=O)O)cc2)cc1", "values": [{"measurement": "T/C", "setting": "[2]", "value": "104 % of control"}, {"measurement": "T/C", "setting": "[3]", "value": "98 % of control"}, {"measurement": "T/C", "setting": "[4]", "value": "102 % of control"}]}, {"smiles": "O=C(COc1ccc(Cl)c(Cl)c1)Nc1ccc[n+](Cc2cc(Cl)ccc2S(=O)(=O)F)c1", "values": [{"measurement": "T/C", "setting": "[2]", "value": "97 % of control"}, {"measurement": "T/C", "setting": "[3]", "value": "105 % of control"}, {"measurement": "T/C", "setting": "[4]", "value": "94 % of control"}]}, {"smiles": "C=CC(C)(O)CCC1C(=C)C(O)CC2C(C)(C)CCCC12C", "note": "(stereo not given)", "values": [{"measurement": "T/C", "setting": "[1]", "value": "100 % of control"}, {"measurement": "T/C", "setting": "dose: 100.0 mg/kg/injection, schedule: Q04DX003 (ip), vehicle: saline", "value": "105 % of control"}, {"measurement": "T/C", "setting": "dose: 200.0 mg/kg/injection, schedule: Q01DX009 (ip), vehicle: saline", "value": "100 % of control"}, {"measurement": "T/C", "setting": "dose: 200.0 mg/kg/injection, schedule: Q04DX003 (ip), vehicle: saline", "value": "95 % of control"}, {"measurement": "T/C", "setting": "dose: 400.0 mg/kg/injection, schedule: Q01DX009 (ip), vehicle: saline", "value": "94 % of control"}, {"measurement": "T/C", "setting": "dose: 400.0 mg/kg/injection, schedule: Q04DX003 (ip), vehicle: saline", "value": "90 % of control"}]}, {"smiles": "O=S(c1cc(Cl)cc(Cl)c1O)c1cc(Cl)cc(Cl)c1O", "values": [{"measurement": "T/C", "setting": "dose: 50.0 mg/kg/injection, schedule: Q01DX001 (ip), vehicle: carboxymethylcellulose (CMC)", "value": "95 % of control"}, {"measurement": "T/C", "setting": "dose: 100.0 mg/kg/injection, schedule: Q01DX001 (ip), vehicle: carboxymethylcellulose (CMC)", "value": "98 % of control"}, {"measurement": "T/C", "setting": "dose: 200.0 mg/kg/injection, schedule: Q01DX001 (ip), vehicle: carboxymethylcellulose (CMC)", "value": "101 % of control"}, {"measurement": "T/C", "setting": "dose: 400.0 mg/kg/injection, schedule: Q01DX001 (ip), vehicle: carboxymethylcellulose (CMC)", "value": "114 % of control"}]}, {"smiles": "CC(=O)COc1cccc(Cl)c1Cl", "values": [{"measurement": "T/C", "setting": "dose: 100.0 mg/kg/injection, schedule: Q01DX009 (ip), vehicle: saline with Tween-80", "value": "98 % of control"}, {"measurement": "T/C", "setting": "dose: 200.0 mg/kg/injection, schedule: Q01DX009 (ip), vehicle: saline with Tween-80", "value": "95 % of control"}, {"measurement": "T/C", "setting": "dose: 400.0 mg/kg/injection, schedule: Q01DX009 (ip), vehicle: saline with Tween-80", "value": "101 % of control"}]}, {"smiles": "CCCn1c2c(c(=O)n(CC)c1=O)S(=O)C(OCC)C(=O)N2", "note": "(stereo not given)", "values": [{"measurement": "T/C", "setting": "dose: 78.0 mg/kg/injection, schedule: Q01DX Z (ip), vehicle: other", "value": "92 % of control"}, {"measurement": "T/C", "setting": "dose: 116.0 mg/kg/injection, schedule: Q01DX Z (ip), vehicle: other", "value": "97 % of control and 104 % of control"}, {"measurement": "T/C", "setting": "dose: 175.0 mg/kg/injection, schedule: Q01DX Z (ip), vehicle: other", "value": "98 % of control and 87 % of control"}, {"measurement": "T/C", "setting": "dose: 262.5 mg/kg/injection, schedule: Q01DX Z (ip), vehicle: other", "value": "93 % of control and 103 % of control"}]}, {"smiles": "NCCc1ccc(O)c(CO)c1", "values": [{"measurement": "T/C", "setting": "dose: 100.0 mg/kg/injection, schedule: Q04DX002 (ip), vehicle: saline", "value": "105 % of control"}, {"measurement": "T/C", "setting": "dose: 200.0 mg/kg/injection, schedule: Q04DX002 (ip), vehicle: saline", "value": "86 % of control"}, {"measurement": "T/C", "setting": "dose: 400.0 mg/kg/injection, schedule: Q04DX002 (ip), vehicle: saline", "value": "105 % of control"}]}]}
